Results published in patent US5607691A, “Compositions and methods for enhanced drug delivery” (priority 1995, dated 1997).
Counter-ions that a name gives are not always drawn. Like-named read-outs stand apart in the source and are kept apart here.

Test: in vitro
Type: in vitro ADME, human
Source text: Table 4 lists the serum half-lives for several model compounds and two representative pharmaceutical agent-chemical modifier complexes using an in vitro assay system described in the Experimental section below. Of course, the serum half-lives will vary in vivo depending upon the age and health condition of the patient. Each complex comprises a model compound or a pharmaceutical agent, a spacer group, and a chemical modifier. Many of the model compounds utilize 4-nitrophenyl(ethanol, propanol, or cyclohexanol) or 4-nitrophenylethylamine as the "model" pharmaceutical agent. A more complete listing of serum half-lives may be found in the Experimental section below.
General procedure for serum hydrolysis of pharmaceutical agent-modifier complexes
Stock solutions (6 mM) of the pharmaceutical agent-modifier complexes were prepared in ethanol (by vortexing, sonication or warming at 37° C. if necessary). If required for solubility, a drop of dimethylsulfoxide, dimethylformamide or methanol may be added. (Acetonitrile cannot be used because it deactivates the serum enzymes.)
HPLC separation methods were established for each study by dilution of the above stock solution (6 μl) in acetonitrile (1 ml) to give a 36 μM solution. Samples (10 μl) were injected onto a Nucleosil 5C8 (250×4 mmID) and guard column (11×4 mm ID) and eluted with a mobile phase of approximately 65% HPLC grade water and 35% of a solution of 0.1% trifluoroacetic acid in acetonitrile, the exact proportions being adjusted in each case to give optimum separation and run times.
Freshly defrosted human serum (3 ml, Sigma) was warmed at 37° C. for five minutes and then 60 μl of the agent-modifier complex stock solution was added with vortexing. […] The aliquots were added to 800 μl of 2% zinc sulfate solution in a 1.5 ml disposable microcentrifuge tube, vortexed immediately and centrifuged at 14,000 RPM for 3 minutes. The supernatants (10 μl) were then injected onto the HPLC and peak areas were used to determine the % remaining. Serum blanks were prepared similarly by addition of serum to the zinc sulfate solution followed by centrifugation, and time=0 samples were also prepared by adding serum to the zinc sulfate solution followed by addition of the complex and separation by centrifugation. The time=0 samples, as well as the original stock solutions, were also used to study the stability of the complex in the absence of enzyme. Half-lives were calculated using the equation
by plotting time (x) vs. ln % remaining (y) to obtain the slope (m) and the y intercept (b).

[1] = human, serum, Table 5, human serum, 37° C., read-out: Serum Half-life (converted)
[2] = human, serum, Table 4, human serum, 37° C., read-out: In vitro Half-Life (converted)
[3] = human, serum, Table 4, read-out: serum half-life (converted)

Row | Compound | half-life [1] [min] | other results
1 | 2-(4-nitrophenyl)ethylamine choline chloride carbamate |  | In vitro Half-Life (human, serum): 86 h; Serum Half-life (human, serum): 86 h
2 | COC(=O)CC(CN(C)C)OC(=O)Cc1c(C)n(C(=O)c2ccc(Cl)cc2)c2ccc(OC)cc12 (racemic) [3-O-(indomethacinoyl)-D,L-norcarnitine methyl ester] | 257 | Serum Half-life (Table 5, human serum, 37° C., listed as O-indomethacinyl-(D,L-norcarnitine methyl ester)): 4.3 h
3 | COC(=O)CC(C[N+](C)(C)C)OC(=O)Cc1c(C)n(C(=O)c2ccc(Cl)cc2)c2ccc(OC)cc12 (racemic) [O-indomethacinyl-(D,L-carnitine methyl ester), iodide salt] | 660 | 
4 | COc1cc(NC(=O)OCC[N+](C)(C)C)c(Cl)cc1C(=O)N[C@H]1CCN(CCCOc2ccc(F)cc2)C[C@H]1OC (relative stereo) [cisapride choline carbamate, chloride salt] | 150 | 
5 | COc1cc(NC(=O)c2ccc[n+](C)c2)c(Cl)cc1C(=O)N[C@H]1CCN(CCCOc2ccc(F)cc2)C[C@H]1OC (relative stereo) [cisapride-(N-(1-methylpyridinium-3-carboxamide), chloride salt] | 60 | 
6 | COc1cc(N)c(Cl)cc1C(=O)N[C@H]1CC[N+](CCCOc2ccc(F)cc2)(COC(=O)CCCCC[N+](C)(C)C)C[C@H]1OC (relative stereo) [cisapride-N-(6-trimethylammoniohexanoyloxymethylammonio), diiodide salt] | 60 | 
7 | COc1cc(N)c(Cl)cc1C(=O)N[C@H]1CC[N+](CCCOc2ccc(F)cc2)(COC(C)=O)C[C@H]1OC (relative stereo) [cisapride-N-acetoxymethylammonio, iodide salt] | 6.5 | 
8 | CCCC(=O)OC[N+]1(CCCOc2ccc(F)cc2)CC[C@H](NC(=O)c2cc(Cl)c(N)cc2OC)[C@H](OC)C1 (relative stereo) [cisapride-N-butyroyloxymethylammonio, iodide salt] | 7.6 | 
9 | CCOC(=O)OC[N+]1(CCCOc2ccc(F)cc2)CC[C@H](NC(=O)c2cc(Cl)c(N)cc2OC)[C@H](OC)C1 (relative stereo) [cisapride-N-ethyoxycarbonyloxymethylammonio, iodide salt] | 4.4 | 
10 | CCCCCCCCCCCC(=O)OC[N+]1(CCCOc2ccc(F)cc2)CC[C@H](NC(=O)c2cc(Cl)c(N)cc2OC)[C@H](OC)C1 (relative stereo) [cisapride-N-lauroyloxymethylammonio, iodide salt] | 5.4 | 
11 | CC(=O)O[C@H](CC(=O)NCCCCCC(=O)OC(C)Cc1ccc([N+](=O)[O-])cc1)C[N+](C)(C)C (stereo partly drawn) [1-(4-nitrophenyl)-2-propanol 6-(O-acetyl-L-carnitinamido)hexanoate ester] | 21.4 | half-life [2]: 21.4 min; half-life [3]: 21.4 min
12 | CC(=O)O[C@H](CC(=O)NCCCCCCOC(=O)OC(C)Cc1ccc([N+](=O)[O-])cc1)C[N+](C)(C)C (stereo partly drawn) [1-(4-nitrophenyl)-2-propanol 6-(O-acetyl-L-carnitinamido)hexanol carbonate, chloride salt] | 3.5 | half-life [2]: 3.5 min
13 | CC(=O)O[C@H](CC(=O)NCCCCCC(=O)OCCc1ccc([N+](=O)[O-])cc1)C[N+](C)(C)C [2-(4-Nitrophenyl)ethanol 6-(O-acetyl-L-carnitinamido)hexanoate ester, chloride salt] | 0.132 | half-life [2]: 0.132 min; half-life [3]: 0.132 min
14 | O=C(OCCc1ccc([N+](=O)[O-])cc1)c1ccc(N2CCOCC2)cc1 [2-(4-nitrophenyl)ethanol 4-morpholino benzoate] |  | In vitro Half-Life (human, serum): 0.0127 h
15 | O=C(OCCc1ccc([N+](=O)[O-])cc1)c1ccc(CN2CCOCC2)cc1 [2-(4-nitrophenyl)ethanol 4-morpholinomethyl-benzoate] | 0.762 | 
16 | O=C(CCCCCN1CCOCC1)OCCc1ccc([N+](=O)[O-])cc1 [2-(4-nitrophenyl)ethanol 6-morpholino-hexanoate] | 0.463 | half-life [2]: 0.463 min
17 | C[N+](C)(C)CCOC(=O)OCCc1ccc([N+](=O)[O-])cc1 [2-(4-nitrophenyl)ethanol choline chloride carbonate ester] | < 0.0333 | half-life [2]: < 0.0333 min
18 | CC(=O)O[C@H](CC(=O)NCCC(=O)OCCc1ccc([N+](=O)[O-])cc1)C[N+](C)(C)C [2-(4-nitrophenyl)ethyl 3-(O-acetyl-L-carnitinamido)propanoate] | 5.5 | half-life [2]: 5.5 min; half-life [3]: 5.5 min

Row | Compound | half-life [1] [min] | other results
19 | CC(=O)O[C@H](CC(=O)NCCc1ccc([N+](=O)[O-])cc1)C[N+](C)(C)C [2-(4-nitrophenyl)ethylamine 3-(O-acetyl)-L-carnitine amide, chloride salt] | 1570 | half-life [2]: 1570 min
20 | C[C@]12CC[C@@H]3c4ccc(OC(=O)OCC[N+](C)(C)C)cc4CC[C@H]3[C@@H]1CC[C@@H]2O [3,17β-estradiol-3-choline carbonate, iodide salt] | 1.53 | 
21 | C[C@]12CC[C@@H]3c4ccc(O)cc4CC[C@H]3[C@@H]1CC[C@@H]2OC(=O)C[N+](C)(C)C [3,17β-estradiol-17β-betaine ester, chloride salt] | 270 | 
22 | C[C@]12CC[C@@H]3c4ccc(O)cc4CC[C@H]3[C@@H]1CC[C@@H]2OC(=O)OCC[N+](C)(C)C [3-hydroxy-17β-estra-trienyl N,N,N-trimethylaminoethyl carbonate, iodide salt] | 16 | 
23 | CC(=O)O[C@H](CC(=O)OCCCCCCOC(=O)O[C@H]1CC[C@H]2[C@@H]3CCc4cc(O)ccc4[C@H]3CC[C@]12C)C[N+](C)(C)C [3-hydroxy-estra-1,3,5-trien-17β-yl 6-(O-acetyl-L-carnitinato)hexyl carbonate, chloride salt] |  | half-life [2]: 240 min
24 | C[N+](C)(C)CCOC(=O)OC1CCC(c2ccc([N+](=O)[O-])cc2)CC1 (stereo not drawn) [4-(4-nitrophenyl)cyclohexanol choline carbonate ester, iodide salt] | 0.327 | half-life [2]: 0.327 min
25 | CCCC(=O)OCn1c(=O)c(F)cn(C(C)OC(=O)CCC[N+](C)(C)C)c1=O.[I-] (stereo not drawn) [5-fluorouracil-1-(4-trimethylammoniobutyroyl-1-oxyethyl)-3-(butyroyloxymethyl), iodide salt] |  | Serum Half-life (Table 5, human serum, 37° C.): 0.162 h
26 | CCCC(=O)OCn1c(=O)c(F)cn(COC(=O)CCC[N+](C)(C)C)c1=O [5-fluorouracil-1-(4-trimethylammoniobutyroyloxymethyl)-3-(butyroyloxymethyl), iodide salt] | 204 | 
27 | CCCCCCCCCCCC(=O)OCn1c(=O)c(F)cn(C(C)OC(=O)CCC[N+](C)(C)C)c1=O.[I-] (stereo not drawn) [5-fluorouracil-1-(N-(4-trimethylammoniobutyroyloxy-1-ethyl)-3-(N-lauroyloxymethyl), iodide salt] |  | Serum Half-life (Table 5, human serum, 37° C.): 0.217 h
28 | CCCCCCCCCCCC(=O)OCn1c(=O)c(F)cn(COC(=O)CCC[N+](C)(C)C)c1=O [5-fluorouracil-1-(N-(4-trimethylammoniobutyroyloxymethyl)-3-(N-lauroxyoxymethyl), iodide salt] | 192 | 
29 | CCCCCCCCCCCC(=O)OCn1cc(F)c(=O)[nH]c1=O [5-fluorouracil-1-(lauroyloxmethyl)] | 3.23 | 
30 | CCCCCCCCCCCC(=O)OCn1cc(F)c(=O)n(COC(=O)CCC[N+](C)(C)C)c1=O [5-fluorouracil-1-(lauroyloxymethyl)-3-(4-trimethylammoniobutyroxyoxymethyl), iodide salt] | 420 | 
31 | CCCCCCCCCCCC(=O)OCn1cc(F)c(=O)n(COC(=O)OCC[N+](C)(C)C)c1=O [5-fluorouracil-1-(lauroyloxymethyl)-3-(cholinecarbonyloxymethyl), iodide salt] | 27 | 
32 | CC(=O)O[C@H](CC(=O)Oc1ccc2c(c1)CC[C@@H]1[C@@H]2CC[C@]2(C)[C@@H](O)CC[C@@H]12)C[N+](C)(C)C [17β-estradiol-3-(O-acetyl-L-carnitine) ester] | 8 | 
33 | CC(=O)O[C@H](CC(=O)O[C@H]1CC[C@H]2[C@@H]3CCc4cc(O)ccc4[C@H]3CC[C@]12C)C[N+](C)(C)C [17β-estradiol-17β-(O-acetyl-L-carnitine) ester] | 240 | 
34 | COc1ccc2c(c1)c(CC(=O)OCC[N+](C)(C)C)c(C)n2C(=O)c1ccc(Cl)cc1 [(indomethacinyl)choline iodide, indomethacinylcholine iodide] | < 1 | 
35 | C[C@]12CC[C@@H]3c4ccc(O)cc4CC[C@H]3[C@@H]1CC[C@@H]2OC(=O)NCC(=O)OCC[N+](C)(C)C [N-[3-hydroxy-estra-1,3,5(10-trien-17β-yl)oxycarbonyl] glycine (choline iodide) ester] | 1.62 | 
